As a reminder, the IC50 is the concentration needed to halve the response being measured.

This assay concerns the target bovine cardiac myofibrils (full-length cardiac myosin ATPase in the native sarcomere) (Bos taurus (Bovine), UniProt Q9BE39). The assay is described as follows: Skinned bovine cardiac myofibril ATPase assay (PK/LDH-coupled). The following applies: Ca2+ activating to 75% of maximal rate; for CDMF75 IC15: concentration giving 15% inhibition; for IC50: read-out: CDMF75 IC50. Type of assay: biochemical. A digest of the protocol: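 Triton-skinned bovine left-ventricle myofibrils (1 mg/mL) in PM 12 buffer (12 mM PIPES, 2 mM MgCl2, pH 6.8) with 50 μM ATP, 0.6 mM EGTA and CaCl2 set for 50% or 75% activation. Steady-state ATPase inhibition followed by PK/LDH-coupled NADH oxidation at 340 nm.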

Chain of bovine cardiac myofibrils (full-length cardiac myosin ATPase in the native sarcomere) (Q9BE39 whole entry): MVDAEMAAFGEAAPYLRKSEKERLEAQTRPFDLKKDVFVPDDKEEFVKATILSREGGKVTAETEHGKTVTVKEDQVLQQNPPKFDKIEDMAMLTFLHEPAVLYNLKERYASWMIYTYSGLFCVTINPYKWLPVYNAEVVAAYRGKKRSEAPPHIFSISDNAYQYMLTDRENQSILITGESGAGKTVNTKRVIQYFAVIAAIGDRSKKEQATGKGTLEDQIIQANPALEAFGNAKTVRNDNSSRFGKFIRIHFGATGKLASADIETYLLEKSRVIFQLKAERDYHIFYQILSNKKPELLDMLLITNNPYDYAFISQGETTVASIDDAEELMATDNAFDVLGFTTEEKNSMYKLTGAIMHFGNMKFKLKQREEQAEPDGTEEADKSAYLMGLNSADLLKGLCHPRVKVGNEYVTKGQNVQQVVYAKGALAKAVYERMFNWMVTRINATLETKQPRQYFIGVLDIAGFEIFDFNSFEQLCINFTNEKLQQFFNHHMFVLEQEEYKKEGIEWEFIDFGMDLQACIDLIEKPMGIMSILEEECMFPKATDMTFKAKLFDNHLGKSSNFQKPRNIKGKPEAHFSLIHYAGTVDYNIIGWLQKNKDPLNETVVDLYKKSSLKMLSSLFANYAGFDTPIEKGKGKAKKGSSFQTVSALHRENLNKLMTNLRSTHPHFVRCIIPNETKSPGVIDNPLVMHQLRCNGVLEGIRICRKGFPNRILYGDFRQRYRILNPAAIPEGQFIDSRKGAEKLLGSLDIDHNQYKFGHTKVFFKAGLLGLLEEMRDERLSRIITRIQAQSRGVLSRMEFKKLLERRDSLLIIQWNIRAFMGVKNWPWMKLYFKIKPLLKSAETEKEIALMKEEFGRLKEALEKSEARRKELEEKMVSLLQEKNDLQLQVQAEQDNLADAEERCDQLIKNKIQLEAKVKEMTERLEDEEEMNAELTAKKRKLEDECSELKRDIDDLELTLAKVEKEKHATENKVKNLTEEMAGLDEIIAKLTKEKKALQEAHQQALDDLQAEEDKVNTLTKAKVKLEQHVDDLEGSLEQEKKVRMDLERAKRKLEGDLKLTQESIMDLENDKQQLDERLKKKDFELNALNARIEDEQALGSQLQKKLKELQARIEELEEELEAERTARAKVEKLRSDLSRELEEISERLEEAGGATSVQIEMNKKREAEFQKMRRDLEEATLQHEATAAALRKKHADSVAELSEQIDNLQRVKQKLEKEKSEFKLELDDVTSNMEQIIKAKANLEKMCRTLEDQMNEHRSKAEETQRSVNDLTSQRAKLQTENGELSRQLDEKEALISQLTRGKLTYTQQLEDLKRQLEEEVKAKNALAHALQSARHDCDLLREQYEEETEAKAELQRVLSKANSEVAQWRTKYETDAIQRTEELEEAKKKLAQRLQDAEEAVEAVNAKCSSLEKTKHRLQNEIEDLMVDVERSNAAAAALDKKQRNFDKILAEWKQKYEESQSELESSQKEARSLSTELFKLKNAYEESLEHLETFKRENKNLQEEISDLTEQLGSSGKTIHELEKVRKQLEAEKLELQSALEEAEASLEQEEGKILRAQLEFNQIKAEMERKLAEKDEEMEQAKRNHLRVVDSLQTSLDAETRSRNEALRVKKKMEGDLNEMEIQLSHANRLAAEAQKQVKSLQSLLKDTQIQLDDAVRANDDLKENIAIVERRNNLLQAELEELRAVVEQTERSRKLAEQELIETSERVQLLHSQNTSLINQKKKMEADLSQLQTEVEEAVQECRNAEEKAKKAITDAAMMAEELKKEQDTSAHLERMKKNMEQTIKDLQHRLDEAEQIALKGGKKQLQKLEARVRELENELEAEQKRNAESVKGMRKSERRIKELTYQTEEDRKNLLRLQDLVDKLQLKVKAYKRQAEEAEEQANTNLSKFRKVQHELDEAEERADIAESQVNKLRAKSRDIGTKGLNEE
Chain of bovine cardiac myofibrils (full-length cardiac myosin ATPase in the native sarcomere) (P85100 whole entry partner): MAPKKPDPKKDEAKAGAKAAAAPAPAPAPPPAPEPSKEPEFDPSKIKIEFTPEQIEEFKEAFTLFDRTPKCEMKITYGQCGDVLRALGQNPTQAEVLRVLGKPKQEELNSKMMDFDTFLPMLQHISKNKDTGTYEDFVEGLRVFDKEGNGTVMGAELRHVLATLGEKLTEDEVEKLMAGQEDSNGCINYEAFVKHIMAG
Chain of bovine cardiac myofibrils (full-length cardiac myosin ATPase in the native sarcomere) (Q3SZE5 whole entry partner): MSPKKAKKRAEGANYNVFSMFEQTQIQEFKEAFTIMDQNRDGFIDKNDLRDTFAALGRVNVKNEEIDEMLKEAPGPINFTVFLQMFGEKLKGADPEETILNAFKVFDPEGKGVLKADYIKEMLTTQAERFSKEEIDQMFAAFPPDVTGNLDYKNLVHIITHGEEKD

For the molecule `Cc1ncc(C(=O)N[C@@H]2COc3cc(-c4noc(C5(C)CC5)n4)ccc32)o1` [Compound 466, (S)-2-methyl-N-(6-(5-(1-methylcyclopropyl)-1,2,4-oxadiazol-3-yl)-2,3-dihydrobenzofuran-3-yl)oxazole-5-carboxamide], the “CDMF75 IC15” value turned out to be 800 nM and the concentration for half-maximal inhibition (IC50) was 2900 nM.
As to `COCc1nc(-c2ccc3c(c2)OC[C@H]3NC(=O)c2cc(C)nn2C)no1` [Compound 227, (S)-N-(6-(5-(methoxymethyl)-1,2,4-oxadiazol-3-yl)-2,3-dihydrobenzofuran-3-yl)-1,3-dimethyl-1H-pyrazole-5-carboxamide], the “CDMF75 IC15” value turned out to be 700 nM and the IC50 turned out to be 2200 nM.
Take `Cc1cc(C(=O)NC2CCc3cc(-c4nc(C)co4)ccc32)ccn1` (stereo not shown) [Compound 173, 2-methyl-N-(5-(4-methyloxazol-2-yl)-2,3-dihydro-1H-inden-1-yl)isonicotinamide]: the “CDMF75 IC15” value worked out at 39200 nM and the IC50 was above 39200 nM.
Turning to `CCc1nc(-c2ccc3c(c2)CC[C@H]3NC(=O)c2cnn(C3CNC3)c2)no1` [Compound 484, (R)-1-(azetidin-3-yl)-N-(5-(5-ethyl-1,2,4-oxadiazol-3-yl)-2,3-dihydro-1H-inden-1-yl)-1H-pyrazole-4-carboxamide], the “CDMF75 IC15” value was 39200 nM and the half-maximal inhibitory concentration (IC50) worked out at 39200 nM.
Turning to `O=C(Nc1ccccc1)NC1CCc2cc(-c3noc(C(F)F)n3)ccc21` (stereo not shown) [Compound 13, 1-(5-(5-(difluoromethyl)-1,2,4-oxadiazol-3-yl)-2,3-dihydro-1H-inden-1-yl)-3-phenylurea], the “CDMF75 IC15” value stood at 500 nM and the 50% inhibitory concentration (IC50) was determined as 22100 nM.
For `Cc1cc(C(=O)NC2CCc3cc(-c4cc(C(F)F)no4)ccc32)ccn1` (stereo not shown) [Compound 170, N-(5-(3-(difluoromethyl)isoxazol-5-yl)-2,3-dihydro-1H-inden-1-yl)-2-methylisonicotinamide], the “CDMF75 IC15” value was 3800 nM and the concentration for half-maximal inhibition (IC50) was 15900 nM.
As for `COCc1nc(-c2ccc3c(c2)OC[C@H]3NC(=O)c2cccc([C@H](C)O)c2)no1` [Compound 736, 3-((S)-1-hydroxyethyl)-N-((S)-6-(5-(methoxymethyl)-1,2,4-oxadiazol-3-yl)-2,3-dihydrobenzofuran-3-yl)benzamide], the “CDMF75 IC15” value stood at 1200 nM and the IC50 was determined as 5400 nM.
As for `CCc1noc(-c2ccc3c(c2)CC[C@H]3NC(=O)c2nnn(C)n2)n1` [Compound 256, (R)-N-(5-(3-ethyl-1,2,4-oxadiazol-5-yl)-2,3-dihydro-1H-inden-1-yl)-2-methyl-2H-tetrazole-5-carboxamide], the “CDMF75 IC15” value was determined as 500 nM and the IC50 was 1700 nM.
On the same counts, the results for `Cc1nc(-c2ccc3c(c2)OCC3NC(=O)c2ccnn2C)no1` (stereo not shown) [Compound 121, 1-methyl-N-(6-(5-methyl-1,2,4-oxadiazol-3-yl)-2,3-dihydrobenzofuran-3-yl)-1H-pyrazole-5-carboxamide] are 1000 nM and 3100 nM.
On to `CCc1nc(-c2ccc3c(c2)CC[C@H]3NC(=O)c2cc(C(C)O)ccn2)no1` (stereo partly drawn) [Compound 721, N-((R)-5-(5-ethyl-1,2,4-oxadiazol-3-yl)-2,3-dihydro-1H-inden-1-yl)-4-(1-hydroxyethyl)picolinamide], for which the “CDMF75 IC15” value came out at 1500 nM and the concentration for half-maximal inhibition (IC50) came out at 6700 nM.
For `[2H]C([2H])([2H])c1nc(-c2ccc3c(c2)OC[C@H]3NC(=O)c2cnc(C)o2)no1` [Compound 267, (S)-2-methyl-N-(6-(5-(methyl-d3)-1,2,4-oxadiazol-3-yl)-2,3-dihydrobenzofuran-3-yl)oxazole-5-carboxamide] the same measures were 1200 nM and 4400 nM.
In the case of `COCc1nc(-c2ccc3c(c2)CC[C@H]3NC(=O)c2cc(CO)ccc2F)no1` [Compound 671, (R)-2-fluoro-5-(hydroxymethyl)-N-(5-(5-(methoxymethyl)-1,2,4-oxadiazol-3-yl)-2,3-dihydro-1H-inden-1-yl)benzamide], the “CDMF75 IC15” value came out at 6500 nM and the IC50 was determined as 30200 nM.
Regarding `Cn1nccc1C(=O)N[C@@H]1CCc2cc(-c3ccnnc3)ccc21` [Compound 369, (R)-1-methyl-N-(5-(pyridazin-4-yl)-2,3-dihydro-1H-inden-1-yl)-1H-pyrazole-5-carboxamide], the “CDMF75 IC15” value amounted to 39200 nM and the half-maximal inhibitory concentration (IC50) was above 39200 nM.
With `CCc1nc(-c2ccc3c(c2)CC[C@H]3NC(=O)c2ncncc2C)no1` [Compound 643, (R)-N-(5-(5-ethyl-1,2,4-oxadiazol-3-yl)-2,3-dihydro-1H-inden-1-yl)-5-methylpyrimidine-4-carboxamide], the “CDMF75 IC15” value was 600 nM and the half-maximal inhibitory concentration (IC50) is 2100 nM.
For `Cn1nccc1C(=O)N[C@@H]1CCc2cc(-c3noc(C(F)F)n3)ccc21` [Compound 92, (R)-N-(5-(5-(difluoromethyl)-1,2,4-oxadiazol-3-yl)-2,3-dihydro-1H-inden-1-yl)-1-methyl-1H-pyrazole-5-carboxamide], the “CDMF75 IC15” value stood at 300 nM and the IC50 was found to be 800 nM.
For `Cc1ncoc1C(=O)N[C@@H]1COc2cc(-c3noc(C4(C)CC4)n3)ccc21` [Compound 462, (S)-4-methyl-N-(6-(5-(1-methylcyclopropyl)-1,2,4-oxadiazol-3-yl)-2,3-dihydrobenzofuran-3-yl)oxazole-5-carboxamide] the same measures were 400 nM and 1400 nM.
Take `CCc1nc(-c2ccc3c(c2)CC[C@H]3NC(=O)c2cc(C(C)=O)ccn2)no1` [Compound 720, (R)-4-acetyl-N-(5-(5-ethyl-1,2,4-oxadiazol-3-yl)-2,3-dihydro-1H-inden-1-yl)picolinamide]: the “CDMF75 IC15” value amounted to 2300 nM and the IC50 came out at 10400 nM.
Turning to `COCc1nc(-c2ccc3c(c2)CC[C@H]3NC(=O)c2cccc(CO)c2)no1` [Compound 668, (R)-3-(hydroxymethyl)-N-(5-(5-(methoxymethyl)-1,2,4-oxadiazol-3-yl)-2,3-dihydro-1H-inden-1-yl)benzamide], the “CDMF75 IC15” value was 600 nM and the IC50 stood at 2200 nM.
Take `CCc1nc(-c2ccc3c(c2)CC[C@H]3NC(=O)OCC2CC2)no1` [Compound 323, cyclopropylmethyl (R)-(5-(5-ethyl-1,2,4-oxadiazol-3-yl)-2,3-dihydro-1H-inden-1-yl)carbamate]: the “CDMF75 IC15” value worked out at 300 nM and the concentration for half-maximal inhibition (IC50) stood at 900 nM.
Turning to `C=Cc1nc(-c2ccc3c(c2)CC[C@H]3NC(=O)c2cnn(C)c2)no1` [Compound 547, N-[(1R)-5-(5-vinyl(1,2,4-oxadiazol-3-yl))indanyl](1-methylpyrazol-4-yl)carboxamide], the “CDMF75 IC15” value came out at 400 nM and the IC50 came to 1500 nM.
Take `Cc1ncc(C(=O)N[C@@H]2CCc3cc(-c4noc(C(F)F)n4)ccc32)n1C` [Compound 678, (R)-N-(5-(5-(difluoromethyl)-1,2,4-oxadiazol-3-yl)-2,3-dihydro-1H-inden-1-yl)-1,2-dimethyl-1H-imidazole-5-carboxamide]: the “CDMF75 IC15” value is 700 nM and the concentration for half-maximal inhibition (IC50) was 2300 nM.
In the case of `Cc1cccnc1C(=O)NC1CCc2cc(-c3noc(C(F)F)n3)ccc21` (stereo not shown) [Compound 58, N-(5-(5-(difluoromethyl)-1,2,4-oxadiazol-3-yl)-2,3-dihydro-1H-inden-1-yl)-3-methylpicolinamide], the “CDMF75 IC15” value turned out to be 4800 nM and the half-maximal inhibitory concentration (IC50) was determined as 21000 nM.
On the same counts, the results for `O=C1C[C@H](C(=O)N[C@@H]2CCc3cc(-c4noc(C5CC5)n4)ccc32)N1` [Compound 315, (R)-N-((R)-5-(5-cyclopropyl-1,2,4-oxadiazol-3-yl)-2,3-dihydro-1H-inden-1-yl)-4-oxoazetidine-2-carboxamide] are 6100 nM and 26400 nM.
As for `Cc1nc(-c2ccc3c(c2)CCC3NC(=O)c2cnn(C)c2C)no1` (stereo not shown) [Compound 54, 1,5-dimethyl-N-(5-(5-methyl-1,2,4-oxadiazol-3-yl)-2,3-dihydro-1H-inden-1-yl)-1H-pyrazole-4-carboxamide], the “CDMF75 IC15” value stood at 2200 nM and the IC50 turned out to be 7800 nM.
Turning to `CCc1nc(-c2ccc3c(c2)CC[C@H]3NC(=O)c2c[nH]nc2C)no1` [Compound 398, (R)-N-(5-(5-ethyl-1,2,4-oxadiazol-3-yl)-2,3-dihydro-1H-inden-1-yl)-3-methyl-1H-pyrazole-4-carboxamide], the “CDMF75 IC15” value was found to be 400 nM and the IC50 came out at 1200 nM.
In the case of `CCc1nc(-c2ccc3c(c2)CC[C@H]3NC(=O)c2cc(OC)no2)no1` [Compound 635, (R)-N-(5-(5-ethyl-1,2,4-oxadiazol-3-yl)-2,3-dihydro-1H-inden-1-yl)-3-methoxyisoxazole-5-carboxamide], the “CDMF75 IC15” value was 300 nM and the IC50 turned out to be 1100 nM.
With `C=Cc1cc(C(=O)N[C@@H]2CCc3cc(-c4noc(CC)n4)ccc32)ccn1` [Compound 655, (R)-N-(5-(5-ethyl-1,2,4-oxadiazol-3-yl)-2,3-dihydro-1H-inden-1-yl)-2-vinylisonicotinamide], the “CDMF75 IC15” value was 600 nM and the concentration for half-maximal inhibition (IC50) was found to be 1900 nM.
With `O=C(N[C@@H]1CCc2cc(-c3noc(C(F)F)n3)ccc21)c1cccc(CO)c1` [Compound 661, (R)-N-(5-(5-(difluoromethyl)-1,2,4-oxadiazol-3-yl)-2,3-dihydro-1H-inden-1-yl)-3-(hydroxymethyl)benzamide], the “CDMF75 IC15” value was 300 nM and the half-inhibitory concentration (IC50) stood at 1100 nM.
Take `O=C(NC1CCc2cc(-c3noc(C(F)F)n3)ccc21)c1ccnc(O)c1` (stereo not shown) [Compound 95, N-(5-(5-(difluoromethyl)-1,2,4-oxadiazol-3-yl)-2,3-dihydro-1H-inden-1-yl)-2-hydroxyisonicotinamide]: the “CDMF75 IC15” value was determined as 1900 nM and the IC50 was 8000 nM.

(Values after patent US12065436B2, “Cardiac sarcomere inhibitors” (Cytokinetics, Inc., priority 2018, dated 2024).)
